Experiment [1] deals with T1, Monoglyceride lipase (Homo sapiens, UniProt Q99685).
T1 sequence (Q99685 whole entry): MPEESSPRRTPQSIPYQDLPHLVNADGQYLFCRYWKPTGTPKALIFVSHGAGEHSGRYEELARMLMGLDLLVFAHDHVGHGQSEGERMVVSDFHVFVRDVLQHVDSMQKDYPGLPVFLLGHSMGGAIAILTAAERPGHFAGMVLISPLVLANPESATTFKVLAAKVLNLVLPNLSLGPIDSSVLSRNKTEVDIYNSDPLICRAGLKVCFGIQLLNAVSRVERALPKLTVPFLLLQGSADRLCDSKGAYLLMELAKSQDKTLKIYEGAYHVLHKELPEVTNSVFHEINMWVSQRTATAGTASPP
The experiment can be described thus: Inhibition of human MAGL.

Experiment [2] deals with T1, Monoglyceride lipase. Briefly: Inhibition of human MAGL transfected in human HEK293T cells assessed as reduction in ABPP binding by competitive binding assay. The experiment is classed as cell-based.
For experiment [3], the target named is T1, Monoglyceride lipase. The experiment can be described thus: Inhibition of MAGL (unknown origin).
Experiment [4] deals with T1, Monoglyceride lipase. Briefly: Inhibition of human MAGL using 4-Nitrophenylacetate as substrate.

One may read the IC50 as the point on the concentration scale where inhibition reaches its midpoint. In the case of `O=C(N1CCC(C(c2ccc3c(c2)OCO3)c2ccc3c(c2)OCO3)CC1)n1cncn1`, in experiment [1], the IC50 is below 0.0004 µM. Consider `O=C(OC(C(F)(F)F)C(F)(F)F)N1CCC(C(O)(c2ccc3c(c2)OCO3)c2ccc3c(c2)OCO3)CC1`, for which the IC50 in experiment [2] was determined as 0.0059 µM. In the case of `CCCCNC(=O)Oc1ccc(C2=NCCS2)cc1`, the midpoint of inhibition in experiment [3], the IC50, lay at 31 µM.

On to `O=C(CNc1ccc([N+](=O)[O-])cc1)Nc1ccc(-c2nc3ccccc3s2)cc1`, for which the concentration for half-maximal inhibition (IC50) in experiment [4] was above 100 µM. Take `CN(C)C(=O)n1nnc(Cc2ccc(-c3ccccc3)cc2)n1`: in experiment [3], half-maximal inhibition (IC50) was put at 0.0009 µM. For `COc1nn(-c2ccc(NC(=O)OCc3ccccc3)c(C)c2)c(=O)o1`, in experiment [4], the IC50 is 0.424 µM.

The compound `O=C(Nc1cccc(-c2ccccc2)c1)OC1CCCCC1` had an IC50 in experiment [3] of 28 µM.

(Values after ChEMBL document CHEMBL4765227, “Hit to lead optimization of a series of N-[4-(1,3-benzothiazol-2-yl)phenyl]acetamides as monoacylglycerol lipase inhibitors with potential anticancer activity” (Eur J Med Chem, 2016).)
